Reference: patent publication US11186588B2 (AYUMI PHARMACEUTICAL CORPORATION, priority 2017, dated 2021)

Legend:
[1] = test system: IL-6 production; experiment: LPS-induced IL-6 production model test; format: in vivo, C57BL/6J mice; conditions: 10 mg/kg oral, 30 min before LPS 1 mg/kg i.p., serum IL-6 60 min after LPS, mice
Protocol: In order to evaluate the inhibitory activity of inflammatory cytokine production in the present compounds, LPS-induced IL-6 production model evaluation was carried out. The specific method is described below.
An appropriate amount of each compound was weighed, triturated with an agate mortar, and suspended or dissolved in 1% methyl cellulose solution to prepare 1 mg/mL solution.
C57BL/6J mice (male, Purchaser: Charles River Laboratories Japan, Inc.) were weighted, before divided into normal group, control group and each compound-administered group based on the measured body weight using a random number, wherein each group contained 6 samples. The mice were manually held in hands and forced orally administered the 1% methyl cellulose solution (normal and control group) or each administration solution comprising the compound (each compound-administered group) at a dose of 10 mL/kg into stomach using a feeding needle. After 30 minutes from administration of the 1% methyl cellulose solution or each compound administration solution, the mice were manually held in hands and intraperitoneally administered physiological saline (normal group) or LPS solution (control and each compound-administered group) at a dose of 1 mg/kg. After 60 minutes from administration of the LPS solution, whole blood was collected from the abdominal vena cava of each mouse under isoflurane inhalation anesthesia (available from Mylan Seiyaku Ltd.), and the mice were euthanized. The collected blood was allowed to stand at room temperature for one hour, and then centrifuged at 1,500 G for 10 minutes to collect a serum (supernatant). The collected serum was stored in a deep freezer set at −80° C. until the measurement of IL-6 in the serum. The IL-6 concentration in the serum of each mouse was measured by a commercially available kit (available from R&D systems, Cat No. M6000B), according to the protocol attached thereto.
The IL-6 production inhibition rate (%) was calculated by the following equation using Microsoft EXCEL 2010. IL-6 production inhibition rate (%)=100−{(average value of IL-6 concentration in serum of each compound-administered group)−(average value of IL-6 concentration in serum of normal group))/(average value of IL-6 concentration in serum of control group)−(average value of IL-6 concentration in serum of normal group)}×100

[2] = Pharmacokinetics test in rats (oral administration); format: in vivo, LEW/CrlCrlj rats; conditions: mean n = 4; for AUCinf / AUCt / Cmax / Kel / MRT / T1/2 / Tmax: oral 2 mg/mL solution at 5 mL/kg; for Concentration (ng/mL), sampling time 0.5 h / Concentration (ng/mL), sampling time 1 h / Concentration (ng/mL), sampling time 3 h / Concentration (ng/mL), sampling time 6 h: plasma; for Concentration (ng/mL), sampling time 0.5 h: 0.5 h after oral 2 mg/mL solution at 5 mL/kg; for Concentration (ng/mL), sampling time 1 h: 1 h after oral 2 mg/mL solution at 5 mL/kg; for Concentration (ng/mL), sampling time 3 h: 3 h after oral 2 mg/mL solution at 5 mL/kg; for Concentration (ng/mL), sampling time 6 h: 6 h after oral 2 mg/mL solution at 5 mL/kg
Protocol: In order to evaluate the transition of plasma concentration of the present compound after oral administration, pharmacokinetics was evaluated in rats. The specific method is described below.
Appropriate amounts of Example 71 and various salts thereof were weighed, triturated with an agate mortar, and suspended or dissolved in 1% methyl cellulose solution to 2 mg/mL (as a converted quantity of Example 71 considering the correction of purify).
LEW/CrlCrlj rats (male, purchased form Charles River Laboratories Japan, Inc.) were weighted, a random number based on the measured body weight was used to avoid difference in average body weight among groups, and the rats were divided into groups, wherein each groups contained 4 rats. The rats were manually held in hands and forced orally administered each administration solution comprising the compound at a dose of 5 mL/kg into stomach using a feeding needle. At 0.5, 1, 3, 6 and 24 hours after the administration of each administration solution comprising the compound, the rats were manually held in hands, and blood was collected from the jugular vein or subclavian vein using a heparin-treated injection syringe. The obtained blood was centrifuged at 1,500 G for 10 minutes, and plasma was collected as an actual sample. In addition, plasma was collected from rats before the administration of the compound in the same manner, which was used as blank plasma. The collected actual samples and blank plasma were stored in a freezer set at −70° C. until the measurement of the compound concentration. To 20 μL of each actual sample were added 20 μL of acetonitrile (available from Kishida Chemical Co., Ltd., Cat No. 140-00401), 100 μL of MilliQ water and 20 μL of the internal standard solution to prepare an analytical sample. In addition, to 20 μL of blank plasma were added 20 μL or 40 μL of acetonitrile (available from Kishida Chemical Co., Ltd., Cat No. 140-00401) and 100 μL of MilliQ water (a blank sample or a zero sample, respectively). A standard sample for a calibration curve was prepared by mixing 20 μL of blank plasma, 20 μL of the standard solution for a calibration curve in each concentration, 100 μL of MilliQ water and 20 μL of the internal standard solution. Whole amount of the prepared each sample was applied to a diatomaceous earth column for liquid-liquid extraction (available from Biotage, Cat No. 820-0200), tert-butyl methyl ether (available from Kanto Chemical Co., Inc., Cat No. 04418-5B) was added and eluted by natural dropping, and the obtained eluate was concentrated to dryness under a nitrogen stream. The residue was dissolved in the re-dissolved solution and 10 μL of each sample was injected into the LC/MS/MS apparatus.
LC/MS/MS analysis was carried out under the following conditions. Analytical column: Hydrosphere C18, 3 μm, 2.0 mm I.D.×50 mm (from YMC, Cat No. HS12S03-0502WT)
Flow rate: 0.3 mL/min. Column temperature: 50° C. Peak area calculation, peak area ratio calculation, preparation of calibration and quantification used in calculating the concentration for the LC/MS/MS analysis were carried out by Analyst ver.1.6.2 (available from AB Sciex). In addition, by using the obtained concentration measurement results, these were analyzed by Non-compartmental model of a pharmacokinetics analysis program WinNonlin ver.6.1 (Pharsight Corporation), and the pharmacokinetics parameter was calculated.

| AUCinf [2] [ng·h/mL] | AUCt [2] [ng·h/mL] | Cmax [2] [ng/mL] | Kel [2] [h⁻¹] | MRT [2] [h] | T1/2 [2] [h] | Tmax [2] [h] | Concentration (ng/mL), sampling time 0.5 h [2] [ng/mL] | Concentration (ng/mL), sampling time 1 h [2] [ng/mL] | Concentration (ng/mL), sampling time 3 h [2] [ng/mL] | Concentration (ng/mL), sampling time 6 h [2] [ng/mL] | Compound | LPS-induced IL-6 production (% Inhibition @ 10 mg/kg) [1] [%] |
| --- | --- | --- | --- | --- | --- | --- | --- | --- | --- | --- | --- | --- |
| 118.01 | 115.41 | 80.1 | 0.64 | 1.27 | 1.09 | 0.50 | 80.1 | 42.9 | 7.69 | 1.66 | CC(=O)Nc1ccc(C2=NN(Cc3cccnc3)c3nnc(C)n3-c3sc(C)c(C)c32)cc1.O=C(O)/C=C\C(=O)O [1 Maleate of Example 71] | 82.0 |
| 101.11 | 95.75 | 62.1 | 0.52 | 1.48 | 1.42 | 0.50 | 62.1 | 34.7 | 7.04 | 2.46 | CC(=O)Nc1ccc(C2=NN(Cc3cccnc3)c3nnc(C)n3-c3sc(C)c(C)c32)cc1.Cc1ccc(S(=O)(=O)O)cc1 [1 Tosylate of Example 71] | 85.0 |
| 105.65 | 114.07 | 111.0 | 0.57 | 1.12 | 1.24 | 0.50 | 111.0 | 34.0 | 6.75 | 1.5 | CC(=O)Nc1ccc(C2=NN(Cc3cccnc3)c3nnc(C)n3-c3sc(C)c(C)c32)cc1.Cl [1 Hydrochloride of Example 71] | 82.7 |
| 106.41 | 104.34 | 79.8 | 0.64 | 1.30 | 1.10 | 0.50 | 79.8 | 36.2 | 6.88 | 1.3 | CC(=O)Nc1ccc(C2=NN(Cc3cccnc3)c3nnc(C)n3-c3sc(C)c(C)c32)cc1.CC(=O)Nc1ccc(C2=NN(Cc3cccnc3)c3nnc(C)n3-c3sc(C)c(C)c32)cc1.O=C(O)CCC(=O)O [0.5 Succinate of Example 71] | 83.0 |
| 54.47 | 31.38 | 15.70 | 0.35 | 1.63 | 3.02 | 0.50 | 15.70 | 11.3 | 4.28 | 2.29 | CC(=O)Nc1ccc(C2=NN(Cc3cccnc3)c3nnc(C)n3-c3sc(C)c(C)c32)cc1.CC(=O)Nc1ccc(C2=NN(Cc3cccnc3)c3nnc(C)n3-c3sc(C)c(C)c32)cc1.O=C(O)/C=C/C(=O)O [0.5 Fumarate of Example 71] | 83.0 |
